Experimental data as given in patent US10155021B2, “Antimicrobial 4-oxoquinolizines” (Emergent Product Development Gaithersburg Inc., priority 2011, dated 2018).
Converted amounts (≈) assume the structure as drawn. Where two headings read alike, the source gives them in different places.

How the values were obtained:
A. baumannii A401 [1] = assay: Preliminary MBC without and with sub-inhibitory polymyxin B (Example 4); type: cell-based, Acinetobacter baumannii; conditions: Acinetobacter baumannii, A401, A baumannii A 401, without polymyxin B, preliminary MBC, read-out: MBC without PB
A. baumannii A329 [2] = assay: MIC determination for Acinetobacter strains (Example 3); type: cell-based; conditions: LEV R, CIP R, MRP R, IMP R, AMK R, TET R
A. baumannii A489 [3] = assay: Preliminary MBC without and with sub-inhibitory polymyxin B (Example 4); type: cell-based, Acinetobacter baumannii; conditions: Acinetobacter baumannii, A489, A. baumannii A489, without polymyxin B, read-out: MBC without PB
[4] = system: Acinetobacter sp. (H064200250); assay: MIC without and with sub-inhibitory polymyxin B (Example 4); type: cell-based; conditions: Acinetobacter
E. coli CTX-M-15 = assay: MIC, panel of quinolone-resistant strains (CLSI); type: cell-based; conditions: Escherichia coli, CTXM15; CIP R, ESBL
A. baumannii A472 [5] = assay: Preliminary MBC without and with sub-inhibitory polymyxin B (Example 4); type: cell-based, Acinetobacter baumannii; conditions: Acinetobacter baumannii, A472, A. baumannii A472, without polymyxin B, read-out: MBC without PB
A. baumannii ATCC 19606 = assay: MIC without and with sub-inhibitory polymyxin B (Example 4); type: cell-based, Acinetobacter baumannii; conditions: Acinetobacter baumannii, ATCC19606, A. baumannii ATCC 19606, without polymyxin B, read-out: MIC without PB
A. baumannii A489 [6] = assay: as above; type: cell-based, Acinetobacter baumannii; conditions: Acinetobacter baumannii, A489, A. baumannii A489, without polymyxin B, read-out: MIC without PB
A. baumannii A390 = assay: Preliminary MBC without and with sub-inhibitory polymyxin B (Example 4); type: cell-based, Acinetobacter baumannii; conditions: Acinetobacter baumannii, A390, A. baumannii A390, without polymyxin B, preliminary MBC, read-out: MBC without PB
A. baumannii A473 [7] = assay: MIC without and with sub-inhibitory polymyxin B (Example 4); type: cell-based, Acinetobacter baumannii; conditions: Acinetobacter baumannii
[8] = system: Acinetobacter sp. (H064200250); assay: Preliminary MBC without and with sub-inhibitory polymyxin B (Example 4); type: cell-based; conditions: Acinetobacter, without polymyxin B, preliminary MBC, read-out: MBC without PB
How it was run: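 After plating, cultures are held at 37° C for 18-20 hours; the endpoint is then scored by comparing colony growth against the positive control, with MBC defined as the lowest concentration showing roughly 90% reduction.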

Pseudomonas ssp PER-1 = assay: MIC, panel of quinolone-resistant strains (CLSI); type: cell-based, Pseudomonas spp; conditions: PER1, CIP R, ESBL
P. aeruginosa 143-3-03 = assay: MIC, panel of quinolone-resistant strains (CLSI); type: cell-based; conditions: Pseudomonas aeruginosa, 143303; CIP I, POL R
A. baumannii A 401 = assay: MIC determination for Acinetobacter strains (Example 3); type: cell-based; conditions: A401, LEV R, CIP R, AMK R, TET R
[9] = system: Acinetobacter spp. H064200250; assay: as above; type: cell-based, Acinetobacter sp.; conditions: LEV R, CIP R, MRP R, IMP I
A. baumannii A472 [10] = assay: MIC without and with sub-inhibitory polymyxin B (Example 4); type: cell-based, Acinetobacter baumannii; conditions: Acinetobacter baumannii, A472, A. baumannii A472, without polymyxin B, read-out: MIC without PB
[11] = system: resistant strains of A. baumannii and one strain of Acinetobacter sp.; assay: MIC without and with sub-inhibitory polymyxin B, whole panel / MIC ranges (Example 4; also strains not listed separately); type: cell-based; conditions: Acinetobacter baumannii
Klebsiella ssp KPC-3 = assay: MIC, panel of quinolone-resistant strains (CLSI); type: cell-based, Klebsiella spp; conditions: KPC3, CIP R, ESBL
P. aeruginosa 1388-3-02 = assay: MIC, panel of quinolone-resistant strains (CLSI); type: cell-based; conditions: Pseudomonas aeruginosa, 1388302; CIP R, POL R
A. baumannii A329 [12] = assay: Preliminary MBC without and with sub-inhibitory polymyxin B (Example 4); type: cell-based, Acinetobacter baumannii; conditions: Acinetobacter baumannii, A329, A. baumannii A329, without polymyxin B, read-out: MBC without PB
E. coli 2906 = assay: MIC, panel of quinolone-resistant strains (CLSI); type: cell-based; conditions: Escherichia coli, CIP R
A. baumannii J2 = assay: MIC without and with sub-inhibitory polymyxin B (Example 4); type: cell-based, Acinetobacter baumannii; conditions: Acinetobacter baumannii, J2, A. baumannii J2, without polymyxin B, read-out: MIC without PB
A. baumannii A401 [13] = assay: as above; type: cell-based, Acinetobacter baumannii; conditions: Acinetobacter baumannii, A401, A baumannii A 401, without polymyxin B, read-out: MIC without PB
A. baumannii A473 [14] = assay: Preliminary MBC without and with sub-inhibitory polymyxin B (Example 4); type: cell-based, Acinetobacter baumannii; conditions: Acinetobacter baumannii, A473, A. baumannii A473, without polymyxin B, read-out: MBC without PB
[15] = Acinetobacter spp. H064200250 (OXA51), without polymyxin B, 2nd experiment, visual reading, read-out: MIC without PB
[16] = Acinetobacter spp. H064200250, without polymyxin B, 1st experiment, read-out: MIC without PB
[17] = A473, A. baumannii A473, without polymyxin B, 2nd experiment, visual reading, read-out: MIC without PB
[18] = Acinetobacter spp. H064200250 (OXA51), 2nd experiment
[19] = Acinetobacter spp. H064200250, 1st experiment

Cc1c(-c2cc(F)c(N)cc2F)ccn2c(=O)c(C(=O)O)cc(C3CC3)c12 [Compound 2, 8-(3,6-difluoro-4-amino-phenyl)-1-cyclopropyl-9-methyl-4-oxo-quinolizine-3-carboxylic acid]
MBC (A. baumannii A401 [1]; 2nd experiment): 4 µg/mL (≈ 10.8 µM)
MBC (A. baumannii A401 [1]; 1st experiment): 2 µg/mL (≈ 5.4 µM)
MIC (A. baumannii A329 [2]): 8 µg/mL (≈ 21.6 µM)
MBC (A. baumannii A489 [3]; 1st experiment): 2 µg/mL (≈ 5.4 µM)
MBC (A. baumannii A489 [3]; 2nd experiment): 4 µg/mL (≈ 10.8 µM)
MIC [4, 15]: 4 µg/mL (≈ 10.8 µM)
MIC [4, 16]: 4 µg/mL (≈ 10.8 µM)
MIC ([4]; read-out: MIC +[…] PB, read with alamar blue, Acinetobacter spp. H064200250 (OXA51), +[…] polymyxin B, 2nd experiment, MIC read with alamar blue): 0.06 µg/mL (≈ 0.162 µM)
MIC (E. coli CTX-M-15): > 32 µg/mL
MBC (A. baumannii A472 [5]; 1st experiment): 4 µg/mL (≈ 10.8 µM)
MBC (A. baumannii A472 [5]; 2nd experiment): 8 µg/mL (≈ 21.6 µM)
MIC (A. baumannii ATCC 19606; 2nd experiment, visual reading): 0.125 µg/mL (≈ 0.338 µM)
MIC (A. baumannii A489 [6]; 1st experiment): 2 µg/mL (≈ 5.4 µM)
MIC (A. baumannii A489 [6]; 2nd experiment, visual reading): 4 µg/mL (≈ 10.8 µM)
MBC (A. baumannii A390; 2nd experiment): 16 µg/mL (≈ 43.2 µM)
MBC (A. baumannii A390; 1st experiment): 8 µg/mL (≈ 21.6 µM)
MIC (A. baumannii A473 [7]; A473, A. baumannii A473, without polymyxin B, 1st experiment, read-out: MIC without PB): 8 µg/mL (≈ 21.6 µM)
MIC (A. baumannii A473 [7]; [17]): 4 µg/mL (≈ 10.8 µM)
MIC (A. baumannii A473 [7]; A473, read-out: MIC +0.06 μg/ml PB, read with alamar blue, A. baumannii A473, +0.06 μg/ml polymyxin B, 2nd experiment, MIC read with alamar blue): 0.125 µg/mL
MBC [8, 18]: 8 µg/mL (≈ 21.6 µM)
MBC [8, 19]: 4 µg/mL (≈ 10.8 µM)
MIC (Pseudomonas ssp PER-1): 16 µg/mL (≈ 43.2 µM)
MIC (P. aeruginosa 143-3-03): 2 µg/mL (≈ 5.4 µM)
MIC (A. baumannii A 401): 4 µg/mL (≈ 10.8 µM)
MIC [9]: 4 µg/mL (≈ 10.8 µM)
MIC (A. baumannii A472 [10]; 1st experiment): 4 µg/mL (≈ 10.8 µM)
MIC (A. baumannii A472 [10]; 2nd experiment, visual reading): 4 µg/mL (≈ 10.8 µM)
MIC ([11]; read-out: MIC range without PB 01-10-2008 n = 8, without polymyxin B, 1st experiment, 8 strains): 0.5 to 16 µg/mL (≈ 1.35 to 43.2 µM)
MIC ([11]; without polymyxin B, 2nd experiment, 11 strains, read-out: MIC range without PB 14-10-2008 n = 11): 1 to 16 µg/mL (≈ 2.7 to 43.2 µM)
MIC (Klebsiella ssp KPC-3): 8 µg/mL (≈ 21.6 µM)
MIC (P. aeruginosa 1388-3-02): 8 µg/mL (≈ 21.6 µM)
MBC (A. baumannii A329 [12]; 1st experiment): 8 µg/mL (≈ 21.6 µM)
MBC (A. baumannii A329 [12]; 2nd experiment): 8 µg/mL (≈ 21.6 µM)
MIC (E. coli 2906): 32 µg/mL (≈ 86.4 µM)
MIC (A. baumannii J2; 1st experiment): 4 µg/mL (≈ 10.8 µM)
MIC (A. baumannii J2; 2nd experiment, visual reading): 4 µg/mL (≈ 10.8 µM)
MIC (A. baumannii A401 [13]; 1st experiment): 4 µg/mL (≈ 10.8 µM)
MIC (A. baumannii A401 [13]; 2nd experiment, visual reading): 4 µg/mL (≈ 10.8 µM)
MBC (A. baumannii A473 [14]; 1st experiment): 2 µg/mL (≈ 5.4 µM)
MBC (A. baumannii A473 [14]; 2nd experiment): 4 µg/mL (≈ 10.8 µM)

Cc1c(-c2ccc(N)cc2)ccn2c(=O)c(C(=O)O)cc(C3CC3)c12 [Compound 8, 8-(4-amino-phenyl)-1-cyclopropyl-9-methyl-4-oxo-quinolizine-3-carboxylic acid]
MBC (A. baumannii A401 [1]; 2nd experiment): 8 µg/mL (≈ 23.9 µM)
MBC (A. baumannii A401 [1]; 1st experiment): 8 µg/mL (≈ 23.9 µM)
MIC (A. baumannii A329 [2]): 16 µg/mL (≈ 47.9 µM)
MBC (A. baumannii A489 [3]; 2nd experiment): 8 µg/mL (≈ 23.9 µM)
MIC ([4]; Acinetobacter spp. H064200250 (OXA51), without polymyxin B, 2nd experiment, MIC read with alamar blue, read-out: MIC without PB, read with alamar blue): 8 µg/mL (≈ 23.9 µM)
MIC [4, 15]: 4 µg/mL (≈ 12 µM)
MIC [4, 16]: 2 µg/mL (≈ 5.98 µM)
MIC (E. coli CTX-M-15): > 32 µg/mL
MBC (A. baumannii A472 [5]; 2nd experiment): 4 µg/mL (≈ 12 µM)
MIC (A. baumannii ATCC 19606; 1st experiment): 1 µg/mL (≈ 2.99 µM)
MBC (A. baumannii A390; 1st experiment): 8 µg/mL (≈ 23.9 µM)
MIC (A. baumannii A473 [7]; [17]): 4 µg/mL (≈ 12 µM)
MBC [8, 18]: 4 µg/mL (≈ 12 µM)
MBC [8, 19]: 4 µg/mL (≈ 12 µM)
MIC (Pseudomonas ssp PER-1): 16 µg/mL (≈ 47.9 µM)
MIC (P. aeruginosa 143-3-03): 2 µg/mL (≈ 5.98 µM)
MIC (A. baumannii A 401): 32 µg/mL (≈ 95.7 µM)
MIC [9]: 2 µg/mL (≈ 5.98 µM)
MIC (A. baumannii A472 [10]; 1st experiment): 4 µg/mL (≈ 12 µM)
MIC (A. baumannii A472 [10]; 2nd experiment, visual reading): 4 µg/mL (≈ 12 µM)
MIC ([11]; A. baumannii A14, without polymyxin B, 1st experiment, read-out: MIC without PB): 32 µg/mL (≈ 95.7 µM)
MIC ([11]; NCTC13301, A. baumannii NCTC 13301, without polymyxin B, 1st experiment, read-out: MIC without PB): 32 µg/mL (≈ 95.7 µM)
MIC ([11]; NCTC13301, A. baumannii NCTC 13301, without polymyxin B, 2nd experiment, visual reading, read-out: MIC without PB): 16 µg/mL (≈ 47.9 µM)
MIC (Klebsiella ssp KPC-3): 16 µg/mL (≈ 47.9 µM)
MIC (P. aeruginosa 1388-3-02): 8 µg/mL (≈ 23.9 µM)
MBC (A. baumannii A329 [12]; 2nd experiment): 8 µg/mL (≈ 23.9 µM)
MIC (E. coli 2906): > 32 µg/mL
MIC (A. baumannii J2; 2nd experiment, visual reading): 4 µg/mL (≈ 12 µM)
MIC (A. baumannii A401 [13]; 1st experiment): 32 µg/mL (≈ 95.7 µM)
MBC (A. baumannii A473 [14]; 2nd experiment): 4 µg/mL (≈ 12 µM)
